pIC50: −log10 of the molar value.
System: MDA-MB-231 multicell spheroids, viability
Assay: Anticancer human tumor MDA-MB-231 cell line growth inhibition [PI3K];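 further: spheroids exposed to agents for seven days before reading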;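 on viability, T/C: percent of vehicle control luminescence with DMSO treated spheroids as 100%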
Details: for pIC50: curve of first compound; for viability, T/C: stronger effect = lower value
Summary of the method: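 Multi-cell spheroids combine tumor cells with HUVEC and human MSCs, treated with targeted agents alone or with inavolisib, alpelisib, duvelisib or copanlisib. Concentrations fall in half-log steps from at or near clinical Cmax, or from 10 microM where Cmax is unknown; viability read-out.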

[1] = second compound 0.0316 µM, first compound 0.0316 µM
[2] = second compound 0.0316 µM, first compound 0.1 µM
[3] = second compound 0.1 µM, first compound 0.0316 µM
[4] = second compound 0.1 µM, first compound 0.1 µM
[5] = second compound 0.316 µM, first compound 0.0316 µM
[6] = second compound 0.316 µM, first compound 0.1 µM
[7] = second compound 1 µM, first compound 0.0316 µM
[8] = second compound 1 µM, first compound 0.1 µM
[9] = second compound 3.16 µM, first compound 0.0316 µM
[10] = second compound 3.16 µM, first compound 0.1 µM
[11] = second compound 10 µM, first compound 0.0316 µM
[12] = second compound 10 µM, first compound 0.1 µM

SMILES: C[C@@H](NC(=O)c1ncnc(N)c1Cl)c1ncc(C(=O)Nc2cc(C(F)(F)F)c(Cl)cn2)s1 + CC(Nc1ncnc2nc[nH]c12)c1cc2cccc(Cl)c2c(=O)n1-c1ccccc1
- pIC50 (second compound 0.0316 µM): < 5.00
- pIC50 (second compound 0.1 µM): < 5.00
- pIC50 (second compound 0.316 µM): < 5.00
- pIC50 (second compound 1 µM): 5.09
- pIC50 (second compound 3.16 µM): 5.86
- pIC50 (second compound 10 µM): 6.48
- viability, T/C [1]: 142%
- viability, T/C [2]: 120%
- viability, T/C (second compound 0.0316 µM, first compound 0.316 µM): 110%
- viability, T/C (second compound 0.0316 µM, first compound 1 µM): 85.6%
- viability, T/C (second compound 0.0316 µM, first compound 3.16 µM): 75.6%
- viability, T/C (second compound 0.0316 µM, first compound 10 µM): 62.6%
- viability, T/C [3]: 140%
- viability, T/C [4]: 119%
- viability, T/C (second compound 0.1 µM, first compound 0.316 µM): 106%
- viability, T/C (second compound 0.1 µM, first compound 1 µM): 89.9%
- viability, T/C (second compound 0.1 µM, first compound 3.16 µM): 72.7%
- viability, T/C (second compound 0.1 µM, first compound 10 µM): 62.4%
- viability, T/C [5]: 125%
- viability, T/C [6]: 124%
- viability, T/C (second compound 0.316 µM, first compound 0.316 µM): 106%
- viability, T/C (second compound 0.316 µM, first compound 1 µM): 80.5%
- viability, T/C (second compound 0.316 µM, first compound 3.16 µM): 68%
- viability, T/C (second compound 0.316 µM, first compound 10 µM): 55.9%
- viability, T/C [7]: 114%
- viability, T/C [8]: 101%
- viability, T/C (second compound 1 µM, first compound 0.316 µM): 79.1%
- viability, T/C (second compound 1 µM, first compound 1 µM): 73.8%
- viability, T/C (second compound 1 µM, first compound 3.16 µM): 60.1%
- viability, T/C (second compound 1 µM, first compound 10 µM): 46.8%
- viability, T/C [9]: 95.5%
- viability, T/C [10]: 79.5%
- viability, T/C (second compound 3.16 µM, first compound 0.316 µM): 60.6%
- viability, T/C (second compound 3.16 µM, first compound 1 µM): 51.7%
- viability, T/C (second compound 3.16 µM, first compound 3.16 µM): 47.7%
- viability, T/C (second compound 3.16 µM, first compound 10 µM): 37.3%
- viability, T/C [11]: 72%
- viability, T/C [12]: 58.6%
- viability, T/C (second compound 10 µM, first compound 0.316 µM): 47.8%
- viability, T/C (second compound 10 µM, first compound 1 µM): 45.5%
- viability, T/C (second compound 10 µM, first compound 3.16 µM): 33.6%
- viability, T/C (second compound 10 µM, first compound 10 µM): 26.1%

SMILES: Cn1ncnc1[C@H]1c2n[nH]c(=O)c3cc(F)cc(c23)N[C@@H]1c1ccc(F)cc1 + CC(Nc1ncnc2nc[nH]c12)c1cc2cccc(Cl)c2c(=O)n1-c1ccccc1
- pIC50 (second compound 0.0316 µM): < 7.00
- pIC50 (second compound 0.1 µM): < 7.00
- pIC50 (second compound 0.316 µM): < 7.00
- pIC50 (second compound 1 µM): < 7.00
- pIC50 (second compound 3.16 µM): < 7.00
- pIC50 (second compound 10 µM): > 9.50
- viability, T/C (second compound 0.0316 µM, first compound 0.000316 µM): 106%
- viability, T/C (second compound 0.0316 µM, first compound 0.001 µM): 108%
- viability, T/C (second compound 0.0316 µM, first compound 0.00316 µM): 97.6%
- viability, T/C (second compound 0.0316 µM, first compound 0.01 µM): 92.5%
- viability, T/C [1]: 98.9%
- viability, T/C [2]: 77.1%
- viability, T/C (second compound 0.1 µM, first compound 0.000316 µM): 99.7%
- viability, T/C (second compound 0.1 µM, first compound 0.001 µM): 99.7%
- viability, T/C (second compound 0.1 µM, first compound 0.00316 µM): 103%
- viability, T/C (second compound 0.1 µM, first compound 0.01 µM): 94%
- viability, T/C [3]: 92%
- viability, T/C [4]: 79.2%
- viability, T/C (second compound 0.316 µM, first compound 0.000316 µM): 94.7%
- viability, T/C (second compound 0.316 µM, first compound 0.001 µM): 103%
- viability, T/C (second compound 0.316 µM, first compound 0.00316 µM): 86.8%
- viability, T/C (second compound 0.316 µM, first compound 0.01 µM): 93.3%
- viability, T/C [5]: 86.9%
- viability, T/C [6]: 76.1%
- viability, T/C (second compound 1 µM, first compound 0.000316 µM): 87.2%
- viability, T/C (second compound 1 µM, first compound 0.001 µM): 81.9%
- viability, T/C (second compound 1 µM, first compound 0.00316 µM): 80.8%
- viability, T/C (second compound 1 µM, first compound 0.01 µM): 78%
- viability, T/C [7]: 73.4%
- viability, T/C [8]: 65%
- viability, T/C (second compound 3.16 µM, first compound 0.000316 µM): 63.7%
- viability, T/C (second compound 3.16 µM, first compound 0.001 µM): 60.9%
- viability, T/C (second compound 3.16 µM, first compound 0.00316 µM): 54.1%
- viability, T/C (second compound 3.16 µM, first compound 0.01 µM): 60.6%
- viability, T/C [9]: 49.8%
- viability, T/C [10]: 52.3%
- viability, T/C (second compound 10 µM, first compound 0.000316 µM): 48.9%
- viability, T/C (second compound 10 µM, first compound 0.001 µM): 47.6%
- viability, T/C (second compound 10 µM, first compound 0.00316 µM): 46.8%
- viability, T/C (second compound 10 µM, first compound 0.01 µM): 46.4%
- viability, T/C [11]: 46%
- viability, T/C [12]: 38.8%

Source: PubChem BioAssay AID1963958 (Molecular Pharmacology Branch, DTP, NCI, 2024)
